Test results: patent US9597402B2, “Sustained release small molecule drug formulation” (DURECT CORPORATION, priority 2005, dated 2017)

Experiments:
[1] = Intrinsic dissolution rate; assay type: physicochemical
Excerpt: (§1) In one embodiment, a small molecule drug formulation includes a small molecule psychotherapeutic drug, such as a small molecule antipsychotic, dopamine receptor agonist, dopamine receptor antagonist, serotonin receptor agonist, serotonin receptor antagonist, and serotonin uptake inhibitor drug. […] R209130-base has the molecular formula C19H20FNO. R209130-mandelic acid salt (R209130) has the molecular formula C19H20FNO.C8H8O3. R209130-tartaric acid salt (R167154) has the molecular formula C19H20FNO.C4H6O6.

[2] = Solubility in benzyl alcohol (BA); details: temperature not given
Excerpt: as §1

[3] = Solubility in H2O; details: pH 7.2
Excerpt: as §1

[4] = Solubility in benzyl benzoate (BB); details: temperature not given
Excerpt: as §1

[5] = Solubility at pH 7; details: cell states pH 7.2
Excerpt: as §1

| SMILES | Intrinsic dissolution rate [1] [mg/cm^2 · min] | Solubility in BA [2] [µg/mL] | Solubility in H2O [3] | Solubility in BB [4] [µg/mL] | Solubility at pH 7 [5] |
| --- | --- | --- | --- | --- | --- |
| Cc1nc2n(c(=O)c1CCN1CCC(c3noc4cc(F)ccc34)CC1)CCCC2 [Risperidone base, Risperidone] | 0.0025 | – | – | – | – |
| Cc1nc2n(c(=O)c1CCN1CCC(c3noc4cc(F)ccc34)CC1)CCCC2 [Risperidone pamoate, Risperidone-pamoate] | – | 2970 | 0.2 (pH 7.2) mg/ml | 50 | 0.2 (pH 7.2) mg/ml |
